Here are results for four compounds from patent US6710041B2, “Pyrrolo[2,1-B][3,1] benzothiazepines and their use for the preparation of medicaments with antipsychotic activity” (Sigma-Tau Industrie Farmaceutiche Riunite S.p.A., priority 2003, dated 2004).

Series [1] concerns Wistar male rats. Briefly: Evaluation of catalepsy (bar test). Type of series: in vivo, rat. On the procedure: The test was performed on Wistar male rats (N=7 animals); catalepsy was evaluated by means of a metal bar measuring 0.6 cm in diameter positioned at a distance of 10 cm from the work surface. The substance studied, in the form of maleic acid salt (ST1699), was administered subcutaneously 30 minutes prior to the evaluation. The subsequent evaluation times were 60, 90, 120, 180, 240, and 300 minutes after administration.
By means of the test used for evaluating catalepsy in the rat, ST1699 affinity for the D2 receptor subtype of the nigrostriatal dopaminergic system was verified.
Table 4 gives the percentages of animals presenting catalepsy at the various different times after administration of subacute doses of the study compound.

Series [2] deals with 5-HT2 versus D2 receptor. Nature of the series: Classification of typical and atypical antipsychotics by 5-HT2 versus D2 pKi ratio and Log Y score. The settings on record: for LogY: Log Y score smaller than 6.48 = atypical profile.
The target of series [3] is T1, H1 histamine receptor (Rattus norvegicus, UniProt P31390).
T1 construct: from tissue; host or cells: rat cortex membranes
Briefly: Interaction with H1 receptors, [3H]-pyrilamine binding, rat cortex membranes. The settings on record: Table 1; mean and standard deviation; read-out: H1 Ki ± ds.
Experimental: Interaction with H1 Receptors
Aspecific binding was determined in the presence of 100 μM of pyrilamine.

T1 sequence (P31390 whole entry): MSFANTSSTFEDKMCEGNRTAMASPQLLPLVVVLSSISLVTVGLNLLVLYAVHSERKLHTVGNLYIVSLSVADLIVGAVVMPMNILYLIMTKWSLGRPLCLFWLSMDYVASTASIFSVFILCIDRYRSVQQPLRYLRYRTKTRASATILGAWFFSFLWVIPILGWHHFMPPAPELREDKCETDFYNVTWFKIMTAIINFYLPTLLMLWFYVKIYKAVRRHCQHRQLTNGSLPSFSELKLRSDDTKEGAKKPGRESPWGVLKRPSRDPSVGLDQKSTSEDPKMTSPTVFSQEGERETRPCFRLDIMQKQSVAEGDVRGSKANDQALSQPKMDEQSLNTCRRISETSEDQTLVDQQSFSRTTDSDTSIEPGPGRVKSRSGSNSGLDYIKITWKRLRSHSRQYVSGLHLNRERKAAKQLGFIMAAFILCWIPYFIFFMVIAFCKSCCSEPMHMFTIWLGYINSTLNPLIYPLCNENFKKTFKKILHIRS

Turning to `O=C(CCCN1CCC(O)(c2ccc(Cl)cc2)CC1)c1ccc(F)cc1` [Haloperidol, haloperidol, reference compound], the “percentage of animals presenting catalepsy” value (from here on “percentage”) was 0% in series [1] (0.2 mg/kg, 30 min after administration); 70% in series [1] (0.2 mg/kg, 60 min after administration); 100% in series [1] (0.2 mg/kg, 90 min after administration); 100% in series [1] (0.2 mg/kg, 120 min after administration); 100% in series [1] (0.2 mg/kg, 180 min after administration).
For the compound `Cc1ccc2n1C=C(N1CCN(C)CC1)c1ccccc1S2` [ST2092, 1-Methyl-9-(4-methylpiperazin-1-yl)pyrrolo[2,1-b][1,3]benzothiazepine], in series [2], the LogY is listed as 3.19. Moreover, the “binding affinity at 5 HT2 receptor compared with D2 dopamine receptor” value in series [2] (in words) is “greater than D2 dopamine receptor”.
Regarding `CN1CCN(C2=Cn3cccc3Sc3ccc(Cl)cc32)CC1` [ST1699, 7-chloro-9-(4-methyl-1-piperazinyl)pyrrolo[2,1-b][1,3]benzothiazepine], the “percentage” value in series [1] (0.3 mg/kg subcutaneously, 30 min after administration) is listed as 0%; in series [1] (0.3 mg/kg subcutaneously, 60 min after administration), 0%; in series [1] (0.3 mg/kg subcutaneously, 90 min after administration) it was 17%; in series [1] (0.3 mg/kg subcutaneously, 120 min after administration), 17%; in series [1] (0.3 mg/kg subcutaneously, 180 min after administration) it was 33%; in series [1] (0.6 mg/kg subcutaneously, 30 min after administration), 33%. The “percentage” value in series [1] (0.6 mg/kg subcutaneously, 60 min after administration) stood at 66%; in series [1] (0.6 mg/kg subcutaneously, 90 min after administration), 83%; in series [1] (0.6 mg/kg subcutaneously, 120 min after administration) it was 100%; in series [1] (0.6 mg/kg subcutaneously, 180 min after administration), 100%. In addition, in series [1] (in words, highest dose among those used (0.6 mg/kg), effects comparable to 0.2 mg/kg of haloperidol), the occurrence of catalepsy result was “induced the occurrence of catalepsy”.
For `CN1CCN(C2=Cn3cccc3Sc3ccc(Cl)cc32)CC1` [ST1508, 7-chloro-9-(4-methyl-1-piperazinyl)pyrrolo[2,1-b][1,3]benzothiazepine], the Ki in series [3] turned out to be 2.7 ± 0.02 nM. Moreover, the LogY in series [2] is 8.20.
